In patent US20060228301A1, “Methods and compositions for determining targeted drug sensitivity and resistance in a cancer subject” (priority 2005, published 2006):

Tests used:
[1] = system: rat neuroblastoma (C6) cells; assay: ratio of [1-13C1]-D-ribose to [1,2-13C2]-D-ribose (m1/m2) in cultured cells contacted with [1,2-13C2]-D-glucose; assay type: cell-based; settings: untreated ratio 2.35
Source text: FIG. 6 depicts the results of in culture studies comparing the ratio of [1-^13C1]-D-ribose to [1,2-^13C2]-D-ribose in rat neuroblastoma (C6) cells which are sensitive to imatinib treatment. The increased ratio of m1/m2 ^13C in ribose indicates sensitivity to Gleevec, which is further increased by Hydroxyurea treatment, which is a well known chemotherapeutic agent for the treatment of various human cancers. The set of vertical bars on the left are observed values of m1 and the set of vertical bars on the right are observed values of m2. The calculated ratios of m1/m2 are provided above the horizontal lines.
(§1) When the ratio of [1-^13C1]-D-ribose to [1,2-^13C2]-D-ribose is less than 1 (e.g., 0.5) the patient is at risk of having a reduced response to treatment with a cancer therapeutic such as imatinib. The increased risk of developing a reduced response to imatinib includes any increased risk. In embodiments of the invention, the increased risk is about a 10% decrease in the ratio described above indicating the risk of developing imatinib resistance. In other embodiments, the increased risk is indicated by about a 10%, 15%, 20%, 25%, 50%, 75%, 85%, 90%, 95%, 98%, 99%, or 99.9% decrease in the ratio of [1-^13C1]-D-ribose to [1,2-^13C2]-D-ribose. […]

[2] = system: cultured myeloid (K-562) cells from patients with chronic myeloid leukemia; assay: ratio of [1-13C1]-D-ribose to [1,2-13C2]-D-ribose (m1/m2) in cultured CML myeloid cells exposed to Gleevec, ribose mass spectral analysis; assay type: cell-based, human; settings: myeloid cells from two patients resistant to Gleevec, increasing concentrations of Gleevec; cut off 0.65 for resistance
Source text: FIG. 5 depicts the results of studies comparing the ratio of [1-^13C1]-D-ribose to [1,2-^13C2]-D-ribose in cultured myeloid cells from patients with chronic myeloid leukemia using increasing concentrations of Gleevec (“x” axis). The set of vertical bars on the left are observed values of m1 and the set of vertical bars on the right are observed values of m2. The calculated ratios of m1/m2 are provided above the horizontal lines. In this experiment, a cut off point of 0.65 to detect resistance was used to identify Gleevec resistance. Cells from two patients resistant to Gleevec have m1/m2 ratios below 0.65, as indicated by an asterisk.
as §1

K562r cells = settings: high doses; cited from earlier work
LAMA84r cells = settings: high doses; cited from earlier work

Structure (SMILES)	ratio of [1-13C1]-D-ribose to [1,2-13C2]-D-ribose (m1/m2) ([1]; 100 μM hydroxyurea)	ratio of [1-13C1]-D-ribose to [1,2-13C2]-D-ribose (m1/m2) ([1]; 3.0 μM Gleevec)	m1/m2 ratio [2]	response to Gleevec treatment (K562r cells)	response to Gleevec treatment (LAMA84r cells)
NC(=O)NO [hydroxyurea]	3.59	–	–	–	–
Cc1ccc(NC(=O)c2ccc(CN3CCN(C)CC3)cc2)cc1Nc1nccc(-c2cccnc2)n1 [Gleevec, imatinib]	–	2.97	below 0.65	do not respond well even to high doses	do not respond well even to high doses
